Measured values reported in ChEMBL document CHEMBL3046437, “Synthesis, characterization and biological evaluation of some pyridine and quinoline fused chromenone derivatives” (2012).
≈ marks a conversion by molar mass, not a printed value. Calls of active or inactive are those of the source. The calls are words filed in the database; no cut-off is given here.

Key:
Assay type in all cases: functional
Staphylococcus aureus [1] = experiment: Antibacterial activity against Staphylococcus aureus ATCC 25923 at 100 ug/ml after 24 hr by agar diffusion method; conditions: ATCC 25923, 24 h, read-out: DIZ
Pseudomonas fluorescens [2] = experiment: Antibacterial activity against Pseudomonas fluorescens S 97 after 24 to 48 hr by two-fold serial dilution method
Pseudomonas [3] = experiment: Antibacterial activity against Pseudomonas phaseolicola GSPB 2828 after 24 to 48 hr by two-fold serial dilution method
Pseudomonas [4] = experiment: Antibacterial activity against Pseudomonas phaseolicola GSPB 2828 at 100 ug/ml after 24 hr by agar diffusion method; conditions: GSPB 2828, 24 h, read-out: DIZ
Pseudomonas fluorescens [5] = experiment: Antibacterial activity against Pseudomonas fluorescens S 97 at 100 ug/ml after 24 hr by agar diffusion method; conditions: for zone of inhibition at 100 µg/mL: S 97, 24 h, read-out: DIZ
Fusarium oxysporum [6] = experiment: Antifungal activity against Fusarium oxysporum ATCC 16417 at 100 ug/ml after 48 hr by agar diffusion method; conditions: for zone of inhibition at 100 µg/mL: ATCC 16417, 48 h, read-out: DIZ
Aspergillus niger [7] = experiment: Antifungal activity against Aspergillus niger MTCC 282 at 100 ug/ml after 48 hr by agar diffusion method; conditions: for zone of inhibition at 100 µg/mL: MTCC 282, 48 h, read-out: DIZ
Fusarium oxysporum [8] = experiment: Antifungal activity against Fusarium oxysporum ATCC 16417 after 24 to 48 hr by two-fold serial dilution method
Streptococcus pyogenes [9] = experiment: Antibacterial activity against Streptococcus pyogenes ATCC 19615 after 24 to 48 hr by two-fold serial dilution method
Streptococcus pyogenes [10] = experiment: Antibacterial activity against Streptococcus pyogenes ATCC 19615 at 100 ug/ml after 24 hr by agar diffusion method; conditions: ATCC 19615, 24 h, read-out: DIZ
Staphylococcus aureus [11] = experiment: Antibacterial activity against Staphylococcus aureus ATCC 25923 after 24 to 48 hr by two-fold serial dilution method
Aspergillus niger [12] = experiment: Antifungal activity against Aspergillus niger MTCC 282 after 24 to 48 hr by two-fold serial dilution method

| Compound | zone of inhibition at 100 µg/mL (Staphylococcus aureus [1]) | MIC (Pseudomonas fluorescens [2]) | MIC (Pseudomonas [3]) | zone of inhibition at 100 µg/mL (Pseudomonas [4]) | zone of inhibition at 100 µg/mL (Pseudomonas fluorescens [5]) | zone of inhibition at 100 µg/mL (Fusarium oxysporum [6]) | diameter of the inhibition zone (DIZ) (Aspergillus niger [7]) | MIC (Fusarium oxysporum [8]) | MIC (Streptococcus pyogenes [9]) | zone of inhibition at 100 µg/mL (Streptococcus pyogenes [10]) | MIC (Staphylococcus aureus [11]) | MIC (Aspergillus niger [12]) | diameter of the inhibition zone (DIZ) (Fusarium oxysporum [6]) | zone of inhibition at 100 µg/mL (Aspergillus niger [7]) | diameter of the inhibition zone (DIZ) (Pseudomonas fluorescens [5]) |
| --- | --- | --- | --- | --- | --- | --- | --- | --- | --- | --- | --- | --- | --- | --- | --- |
| Cc1ccc2oc(=O)c3cc4c(nc3c2c1)CCCC4 | 21 mm | 50 µg/mL (≈ 188 µM) | 50 µg/mL (≈ 188 µM) | 14 mm | 16 mm | 17 mm | inactive | 50 µg/mL (≈ 188 µM) | 12.5 µg/mL (≈ 47.1 µM) | 25 mm | 50 µg/mL (≈ 188 µM) | – | – | – | – |
| Cc1cccc2c1oc(=O)c1cc3c(nc12)CCC3 | 25 mm | 50 µg/mL (≈ 199 µM) | 25 µg/mL (≈ 99.5 µM) | 19 mm | 14 mm | – | – | – | 12.5 µg/mL (≈ 49.7 µM) | 22 mm | 12.5 µg/mL (≈ 49.7 µM) | 12.5 µg/mL (≈ 49.7 µM) | inactive | 28 mm | – |
| O=c1oc2ccc(Cl)cc2c2nc3c(cc12)CCC3 | 26 mm | 12.5 µg/mL (≈ 46 µM) | 100 µg/mL (≈ 368 µM) | 14 mm | 20 mm | 8 mm | – | > 100 µg/mL | 12.5 µg/mL (≈ 46 µM) | 24 mm | 12.5 µg/mL (≈ 46 µM) | 25 µg/mL (≈ 92 µM) | – | 32 mm | – |
| C[C@@H]1C[C@@H]([C@H](O)CC2CC(=O)NC(=O)C2)C(=O)[C@@H](C)C1 [CYCLOHEXIMIDE] | – | – | – | – | – | 43 mm | – | 3.12 µg/mL (≈ 11.1 µM) | – | – | – | 6.25 µg/mL (≈ 22.2 µM) | – | 42 mm | – |
| Cc1ccc2oc(=O)c3cc4c(nc3c2c1)CCC4 | 18 mm | 25 µg/mL (≈ 99.5 µM) | 50 µg/mL (≈ 199 µM) | 15 mm | 17 mm | 30 mm | – | 12.5 µg/mL (≈ 49.7 µM) | 50 µg/mL (≈ 199 µM) | 19 mm | 50 µg/mL (≈ 199 µM) | 50 µg/mL (≈ 199 µM) | – | 24 mm | – |
| CC(=O)OCC1=C(C(=O)O)N2C(=O)[C@@H](NC(=O)Cc3cccs3)[C@H]2SC1 [CEPHALOTHIN] | 36 mm | 6.25 µg/mL (≈ 15.8 µM) | 6.25 µg/mL (≈ 15.8 µM) | 38 mm | 37 mm | – | – | – | 6.25 µg/mL (≈ 15.8 µM) | 37 mm | 6.25 µg/mL (≈ 15.8 µM) | – | – | – | – |
| O=c1oc2ccccc2c2nc3c(cc12)CCC3 | 19 mm | 50 µg/mL (≈ 211 µM) | 50 µg/mL (≈ 211 µM) | 14 mm | 19 mm | 18 mm | – | 50 µg/mL (≈ 211 µM) | 25 µg/mL (≈ 105 µM) | 20 mm | 50 µg/mL (≈ 211 µM) | > 100 µg/mL | – | 10 mm | – |
| O=c1oc2ccccc2c2nc3c(cc12)CCCC3 | 22 mm | 25 µg/mL (≈ 99.5 µM) | 25 µg/mL (≈ 99.5 µM) | 20 mm | 17 mm | 26 mm | – | 12.5 µg/mL (≈ 49.7 µM) | 50 µg/mL (≈ 199 µM) | 22 mm | 25 µg/mL (≈ 99.5 µM) | 50 µg/mL (≈ 199 µM) | – | 22 mm | – |
| O=c1oc2ccccc2c2nc3c(cc12)CCc1ccccc1-3 | 20 mm | 25 µg/mL (≈ 83.5 µM) | 50 µg/mL (≈ 167 µM) | 16 mm | 19 mm | 10 mm | – | 100 µg/mL (≈ 334 µM) | 12.5 µg/mL (≈ 41.8 µM) | 19 mm | 25 µg/mL (≈ 83.5 µM) | 12.5 µg/mL (≈ 41.8 µM) | – | 25 mm | – |
| Cc1ccc2oc(=O)c3cc4c(nc3c2c1)-c1ccccc1CC4 | 23 mm | 25 µg/mL (≈ 79.8 µM) | 25 µg/mL (≈ 79.8 µM) | 18 mm | 18 mm | 17 mm | – | 50 µg/mL (≈ 160 µM) | 25 µg/mL (≈ 79.8 µM) | 17 mm | 50 µg/mL (≈ 160 µM) | 50 µg/mL (≈ 160 µM) | – | 18 mm | – |
| Cc1cccc2c1oc(=O)c1cc3c(nc12)-c1ccccc1CC3 | 25 mm | 50 µg/mL (≈ 160 µM) | 50 µg/mL (≈ 160 µM) | 14 mm | 15 mm | 11 mm | – | 100 µg/mL (≈ 319 µM) | 12.5 µg/mL (≈ 39.9 µM) | 20 mm | 12.5 µg/mL (≈ 39.9 µM) | 50 µg/mL (≈ 160 µM) | – | 15 mm | – |
| O=c1oc2ccc(Cl)cc2c2nc3c(cc12)CCCC3 | 24 mm | – | 50 µg/mL (≈ 175 µM) | 18 mm | – | 16 mm | – | 50 µg/mL (≈ 175 µM) | 12.5 µg/mL (≈ 43.7 µM) | 23 mm | 12.5 µg/mL (≈ 43.7 µM) | 50 µg/mL (≈ 175 µM) | – | 20 mm | inactive |
| Cc1cccc2c1oc(=O)c1cc3c(nc12)CCCC3 | 27 mm | 25 µg/mL (≈ 94.2 µM) | 25 µg/mL (≈ 94.2 µM) | 19 mm | 20 mm | 10 mm | – | 100 µg/mL (≈ 377 µM) | 25 µg/mL (≈ 94.2 µM) | 18 mm | 12.5 µg/mL (≈ 47.1 µM) | 50 µg/mL (≈ 188 µM) | – | 25 mm | – |
| O=c1oc2ccc(Cl)cc2c2nc3c(cc12)CCc1ccccc1-3 | 26 mm | 50 µg/mL (≈ 150 µM) | 50 µg/mL (≈ 150 µM) | 15 mm | 16 mm | 23 mm | – | 12.5 µg/mL (≈ 37.5 µM) | 12.5 µg/mL (≈ 37.5 µM) | 23 mm | 12.5 µg/mL (≈ 37.5 µM) | 100 µg/mL (≈ 300 µM) | – | 8 mm | – |
| O=C(N[C@H](CO)[C@H](O)c1ccc([N+](=O)[O-])cc1)C(Cl)Cl [CHLORAMPHENICOL] | 42 mm | 6.25 µg/mL (≈ 19.3 µM) | 6.25 µg/mL (≈ 19.3 µM) | 37 mm | 38 mm | – | – | – | 3.12 µg/mL (≈ 9.67 µM) | 44 mm | 3.12 µg/mL (≈ 9.67 µM) | – | – | – | – |
